Measured values: patent publication US6875760B2 (Novo Nordisk A/S, priority 1999, dated 2005)

Each molecule was assayed against T1, cloned human glucagon receptor (Homo sapiens, UniProt P47871) (assay: Glucagon Binding Assay (II)). Settings: plasma membranes of BHK cells expressing the receptor; read-out: Glu Bd Assay (II) IC50.
T1 construct: expressed in transfected cells; plasma membrane preparation
T1 sequence (P47871 26-477): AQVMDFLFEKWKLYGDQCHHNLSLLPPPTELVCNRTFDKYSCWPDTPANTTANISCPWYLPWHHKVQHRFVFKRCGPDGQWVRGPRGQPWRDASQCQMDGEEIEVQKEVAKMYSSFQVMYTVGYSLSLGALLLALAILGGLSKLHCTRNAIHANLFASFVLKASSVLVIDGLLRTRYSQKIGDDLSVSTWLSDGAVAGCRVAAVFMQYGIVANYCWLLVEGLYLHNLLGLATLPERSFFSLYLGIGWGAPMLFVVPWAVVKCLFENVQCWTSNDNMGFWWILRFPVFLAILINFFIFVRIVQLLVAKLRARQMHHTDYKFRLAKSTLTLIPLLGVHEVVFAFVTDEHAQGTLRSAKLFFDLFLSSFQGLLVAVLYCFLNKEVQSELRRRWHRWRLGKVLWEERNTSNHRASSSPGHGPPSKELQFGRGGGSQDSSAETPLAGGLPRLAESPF

Row | IC50 | SMILES
1 | 574 nM | C[C@@H](C1CCCCC1)N(Cc1ccc(C(=O)NCCC(=O)O)cc1)C(=O)Nc1cc(Cl)cc(Cl)c1 [Example 140, 3-{4-[1-((1S)-1-Cyclohexylethyl)-3-(3,5-dichlorophenyl)ureidomethyl]benzoylamino)propionic acid]
2 | 146 nM | CC(C)(C)C1CCC(N(Cc2ccc(C(=O)NCCc3nnn[nH]3)cc2)C(=O)Nc2ccc(OC(F)(F)F)cc2)CC1 (stereo not shown) [Example 156, 4-[1-(4-tert-Butylcyclohexyl)-3-(4-trifluoromethoxyphenyl)ureidomethyl]-N-[2-(1H-tetrazol-5-yl)ethyl]benzamide]
3 | 33 nM | CC(C)(C)C1CCC(N(Cc2ccc(OC(F)(F)F)cc2)Cc2ccc(C(=O)NCCC(=O)O)cc2)CC1 (stereo not shown) [Example 385, 3-(4-{[(4-tert-Butylcyclohexyl)-(4-trifluoromethoxybenzyl)amino]methyl}benzoylamino)propionic acid]

Same assay, conditions: screened at 1 μM; library compounds; read-out: displacement of the glucagon tracer when screened at 1 μM concentration in the glucagon binding assay II

Row | SMILES | inhibition at 1 µM
4 | Cc1cc(C)cc(NC(=O)N(Cc2ccc(OCCCC(=O)O)cc2)c2ccc(C3CCCCC3)cc2)c1 [Example 219, 4-{4-[1-(4-Cyclohexylphenyl)-3-(3,5-dimethylphenyl)ureidomethyl]phenoxy}butyric acid] | > 50%
5 | O=C(O)CCNC(=O)c1ccc(CN(C(=O)NCOc2ccc3ccccc3c2)c2ccc3c(c2)OC(F)(F)C(F)(F)O3)cc1 [Example 205, 3-{4-[3-(Naphthalen-2-yloxymethyl)-1-(2,2,3,3-tetrafluoro-2,3-dihydro-benzo[1,4]dioxin-6-yl)ureidomethyl]benzoylamino}propionic acid] | > 50%
6 | O=C(O)CCNC(=O)c1ccc(CN(CCc2ccccc2)Cc2ccc(Oc3ccccc3)cc2)cc1 [Example 145, 3-(4-{[(2-Phenylethyl)-(4-phenoxybenzyl)amino]methyl}benzoylamino)propionic acid] | > 50%
7 | Cc1ccc(CN(CCc2ccc(Cl)cc2Cl)Cc2ccc(C(=O)NCCC(=O)O)s2)cc1 [Example 147, 3-(5-{[(2,4-Dichlorophenylethyl)-(4-methylbenzyl)amino]methyl}thiophene-2-carbonylamino)propionic acid] | > 50%
8 | CCCCOc1ccc(NC(=O)N(Cc2ccc(C(C)(C)C)cc2)Cc2ccc(C(=O)NCCC(=O)O)s2)cc1 [Example 129, 3-{5-[1-(4-tert-Butylbenzyl)-3-(4-butoxyphenyl)ureidomethyl]thiophene-2-carbonylamino)propionic acid] | > 50%
9 | CC(C)(C)c1ccc(CN(Cc2ccc(C(=O)NCCC(=O)O)s2)C(=O)Nc2ccc3ccccc3c2)cc1 [Example 127, 3-{5-[1-(4-tert-Butylbenzyl)-3-naphthalene-2-ylureidomethyl]thiophene-2-carbonylamino)propionic acid] | > 50%

Next, values leading:

Row | inhibition at 1 µM | SMILES
10 | > 50% | CC(C)(C)C1CCC(N(Cc2ccc(C(=O)Nc3nnn[nH]3)cc2)C(=O)Nc2ccc(Cl)cc2)CC1 (stereo not shown) [Example 159, 4-[1-(4-tert-Butylcyclohexyl)-3-(4-chlorophenyl)ureidomethyl]-N-(1H-tetrazol-5-yl)benzamide]
11 | > 50% | O=C(O)CCNC(=O)c1ccc(CN(C(=O)Nc2ccc(Cl)c(C(F)(F)F)c2)c2ccc(C3CCCCC3)cc2)cc1 [Example 185, 3-{4-[3-(4-Chloro-3-trifluoromethylphenyl)-1-(4-cyclohexylphenyl)ureidomethyl]benzoylamino}propionic acid]
12 | > 50% | O=C(O)CCNC(=O)c1ccc(CN(C(=O)Nc2ccc(Cl)c(C(F)(F)F)c2)C2CCC(NC(=O)C(F)(F)F)CC2)cc1 (stereo not shown) [Example 192, 3-(4-{3-(4-Chloro-3-trifluoromethylphenyl)-1-[4-(2,2,2-trifluoroacetylamino)cyclohexyl]ureidomethyl}benzoylamino)propionic acid]
13 | > 50% | O=C(O)CCNC(=O)c1ccc(CN(C(=O)Nc2ccc(Cl)c(C(F)(F)F)c2)c2ccc(C3CCCCC3)cc2)o1 [Example 212, 3-({5-[3-(4-Chloro-3-trifluoromethylphenyl)-1-(4-cyclohexylphenyl)ureidomethyl]furan-2-carbonyl}amino)propionic acid]
